We go through 13 compounds from PubChem BioAssay (NCI).

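Each compound was tested at five concentrations against cells in 96-well plates for 48 hours. TGI marks complete inhibition of growth.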

Some test systems named below: A549 NSCLC; CCRF-CEM leukemia; DU-145 prostate; EKVX NSCLC; HS 578T breast; HT29 colon; PC-3 prostate; T-47D breast; U251 CNS; HOP-62 NSCLC.
Assay in all cases: NCI anticancer screen, dose series, 48 h

With `CCc1cc(Cc2cc(CC)c(NC(=O)C(=O)CC(=O)c3sc(-c4cccnc4)nc3C)c(CC)c2)cc(CC)c1NC(=O)C(=O)CC(=O)c1sc(-c2cccnc2)nc1C`, the TGI with A549 NSCLC, in the test with CCRF-CEM leukemia, with DU-145 prostate, with EKVX NSCLC, in the test with HS 578T breast and with HT29 colon was above 100 µM throughout. The TGI with PC-3 prostate, in the test with T-47D breast and with U251 CNS was above 100 µM each time.
For `O=c1cc(N2CCCC2)[nH]c(=O)n1-c1cccc(Cl)c1`, the TGI in the test on CCRF-CEM leukemia, in the test with DU-145 prostate, in the test on EKVX NSCLC, in the test with HOP-62 NSCLC, in the test on HS 578T breast and in the test on HT29 colon was above 100 µM each time. Further, the TGI with PC-3 prostate, in the test with T-47D breast and with U251 CNS was above 100 µM in each case.
Turning to `O=C(c1cccs1)N1CCc2ccccc2C1`, the TGI in the test on A549 NSCLC, in the test with CCRF-CEM leukemia, in the test with DU-145 prostate, in the test on EKVX NSCLC, in the test on HOP-62 NSCLC and in the test on HS 578T breast was above 100 µM each time. In addition, the TGI with HT29 colon, with PC-3 prostate, in the test on T-47D breast and in the test on U251 CNS was above 100 µM in each case.
As for `C=C(C)[C@H]1Cc2c(ccc3c2O[C@@H]2COc4cc(OC)c(OC)cc4[C@@H]2C3=O)O1`, the TGI with A549 NSCLC is above 100 µM; with CCRF-CEM leukemia it was 71.1 µM; in the test with DU-145 prostate, 38.9 µM; in the test on EKVX NSCLC it was above 88.4 µM; in the test on HOP-62 NSCLC, 40.5 µM; with HS 578T breast, 0.488 µM. Moreover, the TGI in the test on HT29 colon was 4.09 µM; with PC-3 prostate it was 47.5 µM; in the test with T-47D breast, above 97.1 µM; with U251 CNS, 30.9 µM.
For `CN(C(=O)Cc1cccc(N=C=S)c1)[C@H]1CCCC[C@@H]1N1CCCC1`, the TGI with A549 NSCLC stood at 33.9 µM; with CCRF-CEM leukemia, 32.9 µM; with DU-145 prostate, 27.7 µM; with EKVX NSCLC, 39.6 µM; with HOP-62 NSCLC, 33.2 µM; in the test with HS 578T breast, 45 µM. In addition, the TGI amounted to 26.4 µM with HT29 colon, 32.2 µM in the test on PC-3 prostate, 26.8 µM in the test with T-47D breast and 32.3 µM in the test with U251 CNS.
In the case of `CC(=O)[C@@H](C)C(=O)N1C(=O)OC[C@@]12[C@@H]1CC[C@@H](C1)C2(C)C`, the TGI in the test with A549 NSCLC, with CCRF-CEM leukemia, with DU-145 prostate, with EKVX NSCLC, in the test on HOP-62 NSCLC and with HS 578T breast was above 100 µM throughout. For the same compound, the TGI in the test with HT29 colon, with PC-3 prostate, in the test with T-47D breast and in the test with U251 CNS was above 100 µM throughout.
Take `CC1S/C(=N\N=C2/C(=O)Nc3ccc(Br)cc32)N(C2CCCCC2)C1=O` (configuration not stated): the TGI in the test with A549 NSCLC is 12.6 µM; in the test on CCRF-CEM leukemia it was above 100 µM; in the test with DU-145 prostate, 17.6 µM; with EKVX NSCLC, 22.2 µM; in the test on HOP-62 NSCLC, 4.25 µM; in the test on HS 578T breast, 14.4 µM. The TGI came to 53.2 µM in the test with HT29 colon, 19.9 µM with PC-3 prostate, 19.6 µM in the test on T-47D breast and 7.73 µM in the test on U251 CNS.
For the compound `CC(=O)ONC(C(=O)C(C)(C)C)C(=O)C(C)(C)C`, the TGI in the test on A549 NSCLC, with CCRF-CEM leukemia, in the test on DU-145 prostate, in the test with EKVX NSCLC, in the test on HOP-62 NSCLC and in the test with HS 578T breast was above 100 µM in each case. Moreover, the TGI in the test with HT29 colon, in the test on PC-3 prostate, in the test on T-47D breast and in the test with U251 CNS was above 100 µM each time.
In the case of `CC1(C)OC(=O)N(c2ccccc2)C12C=Cc1cc([N+](=O)[O-])ccc1O2` (configuration not stated), the TGI in the test with A549 NSCLC is above 100 µM; in the test with CCRF-CEM leukemia it was 99 µM; in the test on DU-145 prostate it was above 100 µM; with EKVX NSCLC, 98.7 µM; with HOP-62 NSCLC, above 100 µM; in the test on HS 578T breast, above 100 µM. Besides, the TGI with HT29 colon was above 100 µM; with PC-3 prostate, above 100 µM; in the test on T-47D breast, 86.9 µM; in the test on U251 CNS, above 100 µM.
`COC(=O)c1cc2c(cc1Cl)Sc1nnc(Nc3ccc(C)cc3)n1S2(=O)=O`: the TGI in the test on A549 NSCLC amounted to 35.8 µM; with CCRF-CEM leukemia, 36.1 µM; with DU-145 prostate, 7.31 µM; with EKVX NSCLC, 27.7 µM; in the test on HOP-62 NSCLC, 23.5 µM; with HS 578T breast, 32.7 µM. Further, the TGI worked out at 15.5 µM in the test with HT29 colon, 18 µM in the test on PC-3 prostate, 4.12 µM in the test with T-47D breast and 17 µM with U251 CNS.
As for `COC(=O)Nc1nc2ccc(S(=O)(=O)SC)cc2[nH]1`, the TGI in the test on A549 NSCLC is above 100 µM; with CCRF-CEM leukemia, 61.4 µM; in the test with DU-145 prostate it was 27.1 µM; in the test with EKVX NSCLC it was 62.5 µM; in the test on HOP-62 NSCLC it was above 100 µM; in the test with HS 578T breast, above 100 µM. Moreover, the TGI in the test with HT29 colon was determined as 11.1 µM; in the test on PC-3 prostate it was 16.2 µM; with T-47D breast it was 30.4 µM; with U251 CNS, 29.9 µM.
On to `Clc1ccc(-c2cc3nc4ccccc4nc3o2)cc1`, for which the TGI in the test with A549 NSCLC, with CCRF-CEM leukemia, in the test on DU-145 prostate, with EKVX NSCLC, in the test on HS 578T breast and with HT29 colon was above 100 µM in each case. Moreover, the TGI in the test on PC-3 prostate, in the test with T-47D breast and in the test with U251 CNS was above 100 µM in each case.
For `COCc1nc2c(OC)c(-c3nc4nc(N5CCN(C)CC5)ccc4[nH]3)cc(OC)c2n1C`, the TGI in the test with A549 NSCLC is above 100 µM; in the test with CCRF-CEM leukemia it was 45.6 µM; in the test on DU-145 prostate, above 100 µM; in the test on EKVX NSCLC it was 81.2 µM; with HOP-62 NSCLC it was above 100 µM; in the test on HS 578T breast, above 100 µM. For the same compound, the TGI is 62 µM with HT29 colon, 63.4 µM with PC-3 prostate, above 100 µM in the test with T-47D breast and 61.9 µM in the test on U251 CNS.
